Converted amounts (≈) assume the structure as drawn. Read-outs that look alike come from different tables or passages of the source. Numbered stars: 1 amine (or outer) side, 2 acyl side, 3 side chain; on linkers, the order of the positions; unused ones are H or OH. Bridge positions count the residues as written; N and C are the ends. Peptide text beside a SMILES is read from it. I, II: the chains in the order shown. X2 = c1ccc([Si](O[*:1])(O[*:2])c2ccccc2)cc1; OSiEt2O = CC[Si](CC)(O[*:1])O[*:2]
What was measured:
Medulloblastome = test: Effect on medulloblastomas
[1] = tested on: Panc1 Pankreaskrebszellen; test: subG1 apoptotic fraction, propidium iodide, flow cytometry; format: cell-based; conditions: 50 µg/ml, 4 Tage
Experimental: (§1) Die Zellen (IEC6 mausartige Enterozyten; Panc1 Pankreaskrebszellen; Colo205 Kolonkarzinom) wurden mit 50 µg/ml Silanen inkubiert und nach 4-tägiger Aussetzung auf DNA eingefärbt (Propidiumiodid). Die SubG1 Zellteilung wurde mittels Durchflusscytometrie bestimmt.

Colo205 Kolonkarzinom = test: as above; format: cell-based; conditions: 50 µg/ml, 4 Tage
Experimental: as §1

[2] = tested on: IEC6 mausartige Enterozyten; test: as above; format: cell-based; conditions: 50 µg/ml, 4 Tage
Experimental: as §1

[3] = tested on: WI38 - humane embryonale Fibroblasten; test: MTT assay / EZ4U test, 4 days; format: cell-based; conditions: Homo sapiens
Experimental: (§2) Die Silane 1, 5, 9, 10, 11, 13, 15, 16 wurden in Ethanol gelöst und in MTT Assays in einer anfänglichen Konzentration von 200 µg/ml (5 Lösungsschritte 200 - 12.5 µg/ml) verwendet. Die Platten wurde für eine Dauer.von 4 Tagen inkubiert und die Entwicklungsfähigkeit mithilfe des EZ4U Test bestimmt. Die IC50 Werte wurden ausgehend von Dosierungs-Reaktions-Linien berechnet Zelllinien: Colo 205 and HT29 - Kolonkarzinom; BxPC3 and MIAPaCa2 - Pankreaskrebs; CRO2B - karzinoid, A431 Epidermalkarzinom; normale Zellen: WI38 - humane embryonale Fibroblasten; NIH3T3 - mausartige Fibroblasten; IEC6 - mausartige Enterozyten.

HT29 - Kolonkarzinom = test: MTT assay / EZ4U test, 4 days; format: cell-based; conditions: Homo sapiens
Experimental: as §2

[4] = tested on: IEC6 - mausartige Enterozyten; test: MTT assay / EZ4U test, 4 days; format: cell-based; conditions: Rattus norvegicus
Experimental: as §2

MIAPaCa2 - Pankreaskrebs = test: MTT assay / EZ4U test, 4 days; format: cell-based; conditions: Homo sapiens
Experimental: as §2

[5] = tested on: NIH3T3 - mausartige Fibroblasten; test: MTT assay / EZ4U test, 4 days; format: cell-based; conditions: Mus musculus
Experimental: as §2

CRO2B - karzinoid = test: MTT assay / EZ4U test, 4 days; format: cell-based; conditions: read-out: IC50 CR02B
Experimental: as §2

A431 Epidermalkarzinom = test: MTT assay / EZ4U test, 4 days; format: cell-based; conditions: Homo sapiens
Experimental: as §2

BxPC3 - Pankreaskrebs = test: MTT assay / EZ4U test, 4 days; format: cell-based; conditions: Homo sapiens
Experimental: as §2

Krebszellen = test: Mean IC50 over all cancer cell lines; format: cell-based; conditions: read-out: IC50 Krebszellen (Durchschnitt ± SD)
Experimental: as §2
(§3) Mittelwerte-IC50 für alle Krebs- oder normalen Zelllinien: […]

T47D (Brustkrebs) = test: MTT test, triplicate, two-fold dilutions; format: cell-based; conditions: Homo sapiens, T47D, read-out: IC50 T47D
Experimental: (§4) Die Silan wurden in Ethanol aufgelöst und in Zellkulturmedien in Konzentrationen von bis zu 500 µg/ml resuspendiert. Es wurden MTT Tests in dreifacher Ausführung durchgeführt, für welche doppelte Lösungen (7 Schritte) und colo205 (Kofon-Karzinom), BxPC3 (pankreatisches Adenokarzinom) sowie T47D (Brustkrebs) benutzt wurden.

colo205 (Kofon-Karzinom) = test: MTT test, triplicate, two-fold dilutions; format: cell-based; conditions: Homo sapiens
Experimental: as §4

[6] = tested on: BxPC3 (pankreatisches Adenokarzinom); test: MTT test, triplicate, two-fold dilutions; format: cell-based; conditions: Homo sapiens
Experimental: as §4

Normale Zellen = test: Mean IC50 over all normal cell lines; format: cell-based; conditions: read-out: IC50 Normale Zellen (Durchschnitt ± SD)
Experimental: as §2, §3

Maus = test: Pharmacological observation in the mouse (central, vegetative and toxic effects, acute toxicity); format: in vivo
Text: Pharmakologische Untersuchungen an der Maus
Die Verbindungen wurden an der Maus auf zentrale, vegetative und toxische Effekte geprüft. Durch systemische Einzelbeobachtungen sind neben der akuten Toxizität (orienberende letale Dosis, oLD) zentrale und vegetative Wirkungen der Testsubstanzen, insbesondere Effekte auf die Motorik und das Reaktionsvermögen, die Haut- und Rektaltemperatur sowie auf die Pupillenmotorik erfasst worden. Die getesteten Dosierungen betrugen 5 •10^-4, 1 • 10^-3 und 5 • 10^-3 mol/kg Körpergewicht Letale Wirkungen konnten bei keiner der Verbindungen beobachtet werden. Die oLD lag für Di(tetradecanoyloxy)dimethylsilan und Di(octadecanoyloxy)dimethylsilan unter 1 • 10^-3 mol/kg Körpergewicht für alle übrigen Verbindungen unter 5 • 10^-3 mollkg Körpergewicht.

Osteosarkome = test: Effect on osteosarcomas

## CC[Si](CC)(OC(=O)[C@H](Cc1ccccc1)NC(=O)[C@H](Cc1ccccc1)NC(=O)[C@H](Cc1ccccc1)NC(=O)[C@H](Cc1ccccc1)NC(=O)[C@H](Cc1ccccc1)NC(=O)[C@H](Cc1ccccc1)NC(=O)[C@H](Cc1ccccc1)NC(=O)[C@H](Cc1ccccc1)NC(=O)[C@@H](N)Cc1ccccc1)OC(=O)[C@H](Cc1ccccc1)NC(=O)[C@H](Cc1ccccc1)NC(=O)[C@H](Cc1ccccc1)NC(=O)[C@H](Cc1ccccc1)NC(=O)[C@H](Cc1ccccc1)NC(=O)[C@H](Cc1ccccc1)NC(=O)[C@H](Cc1ccccc1)NC(=O)[C@H](Cc1ccccc1)NC(=O)[C@@H](N)Cc1ccccc1 [Diethyl bis(nonaphenylalanyl)silylester] (I: H-FFFFFFFFF / II: H-FFFFFFFFF; linker I:C-II:C via OSiEt2O)
Medulloblastome
  Wirkung gegen Medulloblastome: zeigen eine Wirkung

## N[C@@H](Cc1ccccc1)C(=O)N[C@@H](Cc1ccccc1)C(=O)N[C@@H](Cc1ccccc1)C(=O)N[C@@H](Cc1ccccc1)C(=O)N[C@@H](Cc1ccccc1)C(=O)N[C@@H](Cc1ccccc1)C(=O)N[C@@H](Cc1ccccc1)C(=O)O[Si](OC(=O)[C@H](Cc1ccccc1)NC(=O)[C@H](Cc1ccccc1)NC(=O)[C@H](Cc1ccccc1)NC(=O)[C@H](Cc1ccccc1)NC(=O)[C@H](Cc1ccccc1)NC(=O)[C@H](Cc1ccccc1)NC(=O)[C@@H](N)Cc1ccccc1)(c1ccccc1)c1ccccc1 [Diphenyl bis(heptaphenylalanyl)silylester] (I: H-FFFFFFF / II: H-FFFFFFF; linker I:C-II:C via X2)
Plasmozytome
  Wirkung auf Plasmozytome: zeigen eine Wirkung

## N[C@@H](Cc1ccccc1)C(=O)N[C@@H](Cc1ccccc1)C(=O)N[C@@H](Cc1ccccc1)C(=O)N[C@@H](Cc1ccccc1)C(=O)N[C@@H](Cc1ccccc1)C(=O)N[C@@H](Cc1ccccc1)C(=O)O[Si](OC(=O)[C@H](Cc1ccccc1)NC(=O)[C@H](Cc1ccccc1)NC(=O)[C@H](Cc1ccccc1)NC(=O)[C@H](Cc1ccccc1)NC(=O)[C@H](Cc1ccccc1)NC(=O)[C@@H](N)Cc1ccccc1)(c1ccccc1)c1ccccc1 [Diphenyl bis(hexaphenylalanyl)silylester] (I: H-FFFFFF / II: H-FFFFFF; linker I:C-II:C via X2)
Plasmozytome
  Wirkung auf Plasmozytome: zeigen eine Wirkung

## N[C@@H](Cc1ccccc1)C(=O)N[C@@H](Cc1ccccc1)C(=O)N[C@@H](Cc1ccccc1)C(=O)N[C@@H](Cc1ccccc1)C(=O)N[C@@H](Cc1ccccc1)C(=O)N[C@@H](Cc1ccccc1)C(=O)N[C@@H](Cc1ccccc1)C(=O)N[C@@H](Cc1ccccc1)C(=O)N[C@@H](Cc1ccccc1)C(=O)O[Si](OC(=O)[C@H](Cc1ccccc1)NC(=O)[C@H](Cc1ccccc1)NC(=O)[C@H](Cc1ccccc1)NC(=O)[C@H](Cc1ccccc1)NC(=O)[C@H](Cc1ccccc1)NC(=O)[C@H](Cc1ccccc1)NC(=O)[C@H](Cc1ccccc1)NC(=O)[C@H](Cc1ccccc1)NC(=O)[C@@H](N)Cc1ccccc1)(c1ccccc1)c1ccccc1 [Diphenyl bis(nonaphenylalanyl)silylester] (I: H-FFFFFFFFF / II: H-FFFFFFFFF; linker I:C-II:C via X2)
Plasmozytome
  Wirkung auf Plasmozytome: zeigen eine Wirkung

## N[C@@H](Cc1ccccc1)C(=O)N[C@@H](Cc1ccccc1)C(=O)N[C@@H](Cc1ccccc1)C(=O)N[C@@H](Cc1ccccc1)C(=O)N[C@@H](Cc1ccccc1)C(=O)N[C@@H](Cc1ccccc1)C(=O)N[C@@H](Cc1ccccc1)C(=O)N[C@@H](Cc1ccccc1)C(=O)O[Si](OC(=O)[C@H](Cc1ccccc1)NC(=O)[C@H](Cc1ccccc1)NC(=O)[C@H](Cc1ccccc1)NC(=O)[C@H](Cc1ccccc1)NC(=O)[C@H](Cc1ccccc1)NC(=O)[C@H](Cc1ccccc1)NC(=O)[C@H](Cc1ccccc1)NC(=O)[C@@H](N)Cc1ccccc1)(c1ccccc1)c1ccccc1 [Diphenyl bis(octaphenylalanyl)silylester] (I: H-FFFFFFFF / II: H-FFFFFFFF; linker I:C-II:C via X2)
Plasmozytome
  Wirkung auf Plasmozytome: zeigen eine Wirkung

## NCC(=O)NCC(=O)NCC(=O)NCC(=O)O[Si](OC(=O)CNC(=O)CNC(=O)CNC(=O)CN)(c1ccccc1)c1ccccc1 [Diphenyl bis(tetraglycyl)silylester]
Plasmozytome
  Wirkung auf Plasmozytome: zeigen eine Wirkung

## N[C@@H](Cc1ccccc1)C(=O)N[C@@H](Cc1ccccc1)C(=O)N[C@@H](Cc1ccccc1)C(=O)N[C@@H](Cc1ccccc1)C(=O)O[Si](OC(=O)[C@H](Cc1ccccc1)NC(=O)[C@H](Cc1ccccc1)NC(=O)[C@H](Cc1ccccc1)NC(=O)[C@@H](N)Cc1ccccc1)(c1ccccc1)c1ccccc1 [Diphenyl bis(tetraphenylalanyl)silylester]
Plasmozytome
  Wirkung auf Plasmozytome: zeigen eine Wirkung

## N[C@@H](Cc1ccccc1)C(=O)N[C@@H](Cc1ccccc1)C(=O)N[C@@H](Cc1ccccc1)C(=O)O[Si](OC(=O)[C@H](Cc1ccccc1)NC(=O)[C@H](Cc1ccccc1)NC(=O)[C@@H](N)Cc1ccccc1)(c1ccccc1)c1ccccc1 [Diphenyl bis(triphenylalanyl)silylester]
Plasmozytome
  Wirkung auf Plasmozytome: zeigen eine Wirkung

## CCCCCCCCCCCCCCCC(=O)O[Si](CC)(CC)OC(=O)CCCCCCCCCCCCCCC [Si11, Di (hexadecanoyloxy) diethylsilan]
[1]
  subG1 apoptotische Zellteilung Panc1: 37,7 ± 1,8
Colo205 Kolonkarzinom
  subG1 apoptotische Zellteilung Colo205: 3,3 ± 0,14
[2]
  subG1 apoptotische Zellteilung IEC6: 7.0 ± 0,14
[3]; WI-38, read-out: IC50 WI38
  IC50: 23.7 µg/mL (≈ 39.7 µM)
HT29 - Kolonkarzinom; HT-29, read-out: IC50 HT29
  IC50: 23.1 µg/mL (≈ 38.7 µM)
[4]; IEC-6, read-out: IC50 IEC6
  IC50: 21.2 µg/mL (≈ 35.5 µM)
MIAPaCa2 - Pankreaskrebs; MIA PaCa-2, read-out: IC50 MlAPaCa2
  IC50: 82.5 µg/mL (≈ 138 µM)
[5]; NIH3T3, read-out: IC50 NIH3T3
  IC50: 25 µg/mL (≈ 41.9 µM)
CRO2B - karzinoid
  IC50: 18.9 µg/mL (≈ 31.7 µM)
A431 Epidermalkarzinom; A-431, read-out: IC50 A431
  IC50: 21.9 µg/mL (≈ 36.7 µM)
BxPC3 - Pankreaskrebs; BXPC-3, read-out: IC50 BxPC3
  IC50: 20 µg/mL (≈ 33.5 µM)
Krebszellen
  IC50: 21.1 µg/mL (≈ 35.3 µM)
T47D (Brustkrebs)
  IC50: 7 µg/mL (≈ 11.7 µM)
colo205 (Kofon-Karzinom); COLO 205, read-out: IC50 Colo205
  IC50: 300 µg/mL (≈ 502 µM)
[6]; BXPC-3, read-out: IC50 BxPC3
  IC50: 10 µg/mL (≈ 16.7 µM)
Normale Zellen
  IC50: 23.3 µg/mL (≈ 39 µM)

## CCCCCCCCCCCCCCCC(=O)O[Si](C)(C)OC(=O)CCCCCCCCCCCCCCC [Si16, Di (hexadecanoyloxy) dimethylsilan]
[1]
  subG1 apoptotische Zellteilung Panc1: 22,2 ± 1,6
Colo205 Kolonkarzinom
  subG1 apoptotische Zellteilung Colo205: 3,55 ± 0,07
[2]
  subG1 apoptotische Zellteilung IEC6: 2,45±0,21
[3]; WI-38, 200 - 12.5 µg/ml, 4 Tage, read-out: IC50 WI38
  IC50: 36 µg/mL (≈ 63.3 µM)
HT29 - Kolonkarzinom; HT-29, 200 - 12.5 µg/ml, 4 Tage, read-out: IC50 HT29
  IC50: 34.4 µg/mL (≈ 60.5 µM)
[4]; IEC-6, 200 - 12.5 µg/ml, 4 Tage, read-out: IC50 IEC6
  IC50: 17.2 µg/mL (≈ 30.2 µM)
MIAPaCa2 - Pankreaskrebs; MIA PaCa-2, 200 - 12.5 µg/ml, 4 Tage, read-out: IC50 MlAPaCa2
  IC50: 400 µg/mL (≈ 703 µM)
[5]; NIH3T3, 200 - 12.5 µg/ml, 4 Tage, read-out: IC50 NIH3T3
  IC50: 42.5 µg/mL (≈ 74.7 µM)
CRO2B - karzinoid; 200 - 12.5 µg/ml, 4 Tage
  IC50: 31.5 µg/mL (≈ 55.4 µM)
A431 Epidermalkarzinom; A-431, 200 - 12.5 µg/ml, 4 Tage, read-out: IC50 A431
  IC50: 34.5 µg/mL (≈ 60.6 µM)
BxPC3 - Pankreaskrebs; BXPC-3, 200 - 12.5 µg/ml, 4 Tage, read-out: IC50 BxPC3
  IC50: 12.5 µg/mL (≈ 22 µM)
Maus; 1•10^-3 mol/kg
  zentrale, vegetative und toxische Effekte (Verhaltensänderungen): keine Verhaltensänderungen
Maus; 5•10^-3 mol/kg
  zentrale, vegetative und toxische Effekte (Verhaltensänderungen): Ataxie, Piloerektion, Grifistärkesenkung
Maus; 5•10^-4 mol/kg
  zentrale, vegetative und toxische Effekte (Verhaltensänderungen): keine Verhaltensänderungen
Krebszellen; mean over cancer cell lines
  IC50: 28.2 µg/mL (≈ 49.6 µM)
T47D (Brustkrebs); up to 500 µg/ml
  IC50: 15 µg/mL (≈ 26.4 µM)
colo205 (Kofon-Karzinom); COLO 205, up to 500 µg/ml, read-out: IC50 Colo205
  IC50: 500 µg/mL (≈ 879 µM)
[6]; BXPC-3, up to 500 µg/ml, read-out: IC50 BxPC3
  IC50: 45 µg/mL (≈ 79.1 µM)
Normale Zellen; mean over normal cell lines
  IC50: 31.9 µg/mL (≈ 56.1 µM)
Osteosarkome
  Wirkung auf Osteosarkome: zeigen eine Wirkung
